Assay results reported in patent US9156816B2 (priority 2010, dated 2015).

Legend:
Pythium ultimum = experiment: Cucumber damping-off (PU) control test; type: in vivo; conditions: Globisporangium ultimum, 168 h, soil irrigated with 30 ml emulsion at active ingredient concentration of 100 ppm, ratio of healthy seedlings on day 7 after planting vs untreated group
Experimental: 40 ml of sterile soil were placed in plastic cups followed by leveling the surface of the soil. The soil was then irrigated with 30 ml of the aforementioned emulsion of Preparation Example 2 at an active ingredient concentration of 100 ppm. Following irrigation, cucumbers (variety: Sagami Hanjiro) were planted in the soil and covered with 20 ml of contaminated soil (containing Pythium ultimum) from above. The cups were then placed in plastic bags and allowed to stand undisturbed for 3 days in a constant temperature room at 25° C. (dark location […]). Next, the plants were removed from the bags and held in a constant temperature room at 25° C. using a light-dark cycle of 12 hours. On day 7 after planting, the ratios of healthy seedlings were compared between an untreated group and treated group to calculate control effects (control values).

Pythium aphanidermatum = experiment: Antimicrobial test (mycelia growth inhibition); type: cell-based; conditions: compound concentration of 1 ppm, PSY medium, 25° C., days 3 to 7 of culturing, read-out: mycelia growth inhibition rate
Experimental: The compound according to the present invention was dissolved in dimethylsulfoxide and diluted to double the prescribed concentration in a 96-well microplate using PSY medium to obtain a drug solution. On the other hand, a diluted dimethylsulfoxide solution was prepared using PSY medium for use as an untreated group.
A suspension of liquid-cultured test microorganisms (Pythium aphanidermatum) was mixed with an equal volume of the drug solution and cultured in a dark location at 25° C. Mycelia growth was observed on days 3 to 7 of culturing to determine mycelia growth inhibition rates.

[1] = system: tomato late blight pathogen (Phytophthora infestans); experiment: whole plant or invertebrate; type: in vivo; conditions: 96 h, read-out: control value

Row | Structure (SMILES) | pest or weed control at 100 ppm (Pythium ultimum) [%] | inhibition at 1 ppm (Pythium aphanidermatum) [%] | melting point [°C] | pest or weed control at 100 µg/mL [1] [%]
1 | Cn1nnnc1/C(=N\OCc1cccc(NC(=O)CC2OCCCO2)n1)c1ccccc1 [a-14] | ≥ 50 | ≥ 50 | 107 to 108 | ≥ 70
2 | COCC(C)(C)C(=O)Nc1cccc(CO/N=C(/c2ccccc2)c2nnnn2C)n1 [b-8] | ≥ 50 | ≥ 50 | 60 to 61 | –
3 | COCCC(C)(C)C(=O)Nc1cccc(CO/N=C(/c2ccccc2)c2nnnn2C)n1 [b-10] | ≥ 50 | ≥ 50 | 86 to 87 | –
4 | COC(OC)C(=O)Nc1cccc(CO/N=C(/c2ccccc2)c2nnnn2C)n1 [a-3] | ≥ 50 | ≥ 50 | 88 to 90 | ≥ 70
5 | Cn1nnnc1/C(=N\OCc1cccc(NC(=O)OCC2COCO2)n1)c1ccccc1 (centres unmarked) [c-4] | ≥ 50 | ≥ 50 | 104 to 105 | ≥ 70
6 | CCOC(OC(=O)Nc1cccc(CO/N=C(/c2ccccc2)c2nnnn2C)n1)C(F)(F)F (stereo not drawn) [d-1] | – | ≥ 50 | 123 to 124 | ≥ 70
7 | CCOC(OCC)C(C)C(=O)Nc1cccc(CO/N=C(/c2ccccc2)c2nnnn2C)n1 (centres unmarked) [a-20] | ≥ 50 | ≥ 50 | – | ≥ 70
8 | COC(COC(=O)Nc1cccc(CO/N=C(/c2ccccc2)c2nnnn2C)n1)OC [c-7, (Z)-(1-methyl-1H-tetrazol-5-yl)phenylmethanone-o-[2-(2,2-dimethoxyethoxycarbonylamino)pyridin-6-ylmethyl]oxime] | ≥ 50 | ≥ 50 | – | ≥ 70
9 | COCC(C)C(=O)Nc1cccc(CO/N=C(/c2ccccc2)c2nnnn2C)n1 (centres unmarked) [b-3] | ≥ 50 | ≥ 50 | 66 to 68 | –
10 | CCOC(C)(OCCOC)C(=O)Nc1cccc(CO/N=C(/c2ccccc2)c2nnnn2C)n1 (centres unmarked) [a-31] | ≥ 50 | ≥ 50 | – | ≥ 70
11 | CCOC(CCOC(=O)Nc1cccc(CO/N=C(/c2ccccc2)c2nnnn2C)n1)OCC [c-8] | ≥ 50 | ≥ 50 | – | ≥ 70
12 | COC(C)(C)C(=O)Nc1cccc(CO/N=C(/c2ccccc2)c2nnnn2C)n1 [b-6] | – | ≥ 50 | 104 to 105 | –
13 | COC(CC(C)OC(=O)Nc1cccc(CO/N=C(/c2ccccc2)c2nnnn2C)n1)OC (centres unmarked) [c-6] | ≥ 50 | ≥ 50 | – | ≥ 70
14 | CCSC(SCC)C(=O)Nc1cccc(CO/N=C(/c2ccccc2)c2nnnn2C)n1 [a-22] | ≥ 50 | ≥ 50 | – | ≥ 70
15 | COC(CCC(=O)Nc1cccc(CO/N=C(/c2ccccc2)c2nnnn2C)n1)OC [a-17] | ≥ 50 | ≥ 50 | – | ≥ 70
16 | CCOC(C)(OCC(F)(F)F)C(=O)Nc1cccc(CO/N=C(/c2ccccc2)c2nnnn2C)n1 (centres unmarked) [a-30] | ≥ 50 | ≥ 50 | – | ≥ 70
17 | Cn1nnnc1/C(=N\OCc1cccc(NC(=O)C2SCCCS2)n1)c1ccccc1 [a-23] | ≥ 50 | ≥ 50 | – | ≥ 70
18 | Cn1nnnc1/C(=N\OCc1cccc(NC(=O)OC2CCOCC2)n1)c1ccccc1 [d-3] | – | ≥ 50 | 72 to 73 | ≥ 70
19 | CCOC(C)(OCC)C(=O)Nc1cccc(CO/N=C(/c2ccccc2)c2nnnn2C)n1.Cl [a-33] | – | ≥ 50 | 70 to 73 | –
20 | Cn1nnnc1/C(=N\OCc1cccc(NC(=O)OC2CCOC2)n1)c1ccccc1 (stereo not drawn) [d-4] | – | – | 76 to 78 | ≥ 70
21 | Cn1nnnc1/C(=N\OCc1cccc(NC(=O)C(C)(C)O)n1)c1ccccc1 [b-7] | – | ≥ 50 | 144 to 146 | –
22 | CCCOC(OCCC)C(=O)Nc1cccc(CO/N=C(/c2ccccc2)c2nnnn2C)n1 [a-9] | ≥ 50 | ≥ 50 | – | ≥ 70
